Assays:
[1] = system: KARPAS422 human B cell lymphoma cell; assay: Cell proliferation, KARPAS422, 7 day treatment (WST-8); assay type: cell-based; settings: Homo sapiens, KARPAS-422, 168 h, anti-proliferative IC50, Karpas 422 cell line, 7 day treatment; read-out: Karpas Cell line
Procedure, shortened: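 Read-out was WST-8 absorbance at 450 nm after 1-4 h with reagent, taken after 7-day compound treatment (serial dilutions, 37 °C, 5% CO2) of 2 000-3 000 KARPAS422 cells per well. IC50 fitted by nonlinear regression on DMSO-normalized values.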

[2] = system: Pfeiffer cell line; assay: Anti-proliferative activity, Pfeiffer cell line, 7 day treatment; assay type: cell-based; settings: Homo sapiens, 168 h; anti-proliferative IC50, Pfeiffer cell line, 7 day treatment; read-out: Pfeiffer Cell line
Procedure, shortened: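 Cells seeded at 2 000-3 000 per well were treated with serially diluted compounds for 7 days at 37° C, 5% CO2. Growth was measured by WST-8 assay read at 450 nm after 1-4 h reagent incubation. Readings were normalized to DMSO-treated cells and IC50 values derived by nonlinear regression.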

IC50 [1]	IC50 [2]	Compound
25.7 nM	0.035 nM	O=C1c2ncn3c(NCc4c(F)ccc5c4CCO5)ncc(c23)-c2ccsc2CN1C1CC1 [compound 88, 4-cyclopropyl-11-(((5-fluoro-2,3-dihydrobenzofuran-4-yl)methyl)amino)-4,5-dihydro-3H-6-thia-2,4,10,11a-tetraazacyclopenta[4,5]cycloocta[1,2,3-cd]inden-3-one]
0.078 nM	0.044 nM	CCN1Cc2cc(C(F)(F)F)ncc2-c2cnc(NCc3c(F)ccc4c3CCO4)n3cnc(c23)C1=O [compound 90, 4-ethyl-12-(((5-fluoro-2,3-dihydrobenzofuran-4-yl)methyl)amino)-7-(trifluoromethyl)-4,5-dihydro-3H-2,4,8,11,12a-pentaazabenzo[4,5]cycloocta[1,2,3-cd]inden-3-one]
5.23 nM	0.043 nM	O=C1c2ncn3c(NCc4c(F)ccc5c4CCO5)ncc(c23)-c2sc(C(F)(F)F)nc2CN1C1CC1 [compound 91, 4-cyclopropyl-11-(((5-fluoro-2,3-dihydrobenzofuran-4-yl)methyl)amino)-7-(trifluoromethyl)-4,5-dihydro-3H-8-thia-2,4,6,10,11a-pentaazacyclopenta[4,5]cycloocta[1,2,3-cd]inden-3-one]

Continued, compound first:

Compound	IC50 [1]	IC50 [2]
O=C1c2ncn3c(NCc4c(F)ccc5c4CCO5)ncc(c23)-c2cnc(C(F)(F)F)cc2CN1CC1CCOCC1 [compound 45, 12-(((5-fluoro-2,3-dihydrobenzofuran-4-yl)methyl)amino)-4-((tetrahydro-2H-pyran-4-yl)methyl)-7-(trifluoromethyl)-4,5-dihydro-3H-2,4,8,11,12a-pentaazabenzo[4,5]cycloocta[1,2,3-cd]inden-3-one]	6.15 nM	0.61 nM
CC(F)(F)CN1Cc2cc(C(F)(F)F)ncc2-c2cnc(NCc3c(F)ccc4c3CCO4)n3cnc(c23)C1=O [compound 82, 4-(2,2-difluoropropyl)-12-(((5-fluoro-2,3-dihydrobenzofuran-4-yl)methyl)amino)-7-(trifluoromethyl)-4,5-dihydro-3H-2,4,8,11,12a-pentaazabenzo[4,5]cycloocta[1,2,3-cd]inden-3-one]	3.51 nM	0.074 nM
O=C1c2ncn3c(NCc4c(F)ccc5c4CCO5)ncc(c23)-c2ccc(C(F)(F)F)cc2CN1CC(F)(F)F [compound 83, 12-(((5-fluoro-2,3-dihydrobenzofuran-4-yl)methyl)amino)-4-(2,2,2-trifluoroethyl)-7-(trifluoromethyl)-4,5-dihydro-3H-2,4,11,12a-tetraazabenzo[4,5]cycloocta[1,2,3-cd]inden-3-one]	6.32 nM	0.304 nM
O=C1c2ncn3c(NCc4c(F)ccc5c4CCO5)ncc(c23)-c2cnc(C(F)(F)F)cc2CN1CC(F)(F)F [compound 84, 12-(((5-fluoro-2,3-dihydrobenzofuran-4-yl)methyl)amino)-4-(2,2,2-trifluoroethyl)-7-(trifluoromethyl)-4,5-dihydro-3H-2,4,8,11,12a-pentaazabenzo[4,5]cycloocta[1,2,3-cd]inden-3-one]	1.48 nM	0.048 nM
O=C1c2ncn3c(NCc4c(F)ccc5c4CCO5)ncc(c23)-c2cnc(C(F)(F)F)cc2CN1C1CC(F)(F)C1 [compound 85, 4-(3,3-difluorocyclobutyl)-12-(((5-fluoro-2,3-dihydrobenzofuran-4-yl)methyl)amino)-7-(trifluoromethyl)-4,5-dihydro-3H-2,4,8,11,12a-pentaazabenzo[4,5]cycloocta[1,2,3-cd]inden-3-one]	2.71 nM	0.13 nM
Cc1nc2c(s1)-c1cnc(NCc3c(F)ccc4c3CCO4)n3cnc(c13)C(=O)N(C1CC1)C2 [compound 86, 4-cyclopropyl-11-(((5-fluoro-2,3-dihydrobenzofuran-4-yl)methyl)amino)-7-methyl-4,5-dihydro-3H-8-thia-2,4,6,10,11a-pentaazacyclopenta[4,5]cycloocta[1,2,3-cd]inden-3-one]	2.29 nM	0.021 nM

Source: patent US12145944B2, “Imidazopyrimidines as EED inhibitors and the use thereof” (THE REGENTS OF THE UNIVERSITY OF MICHIGAN, priority 2019, dated 2024)
